# Source: US10167262B2, “Herbicidal substituted 3-arylpyrazoles” (FMC CORPORATION, priority 2014, dated 2019)
# Assays:
# Type in all cases: in vivo
# rice (Oryza sativa) = experiment: Test B flooded paddy test, plant response rating 0-100; conditions: Flood, 250 g ai/ha; scale 0 to 100 (0 no effect, 100 complete control); 13 to 15 days
# Outline: (§1)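 Pots were flooded to 3 cm above the soil surface at treatment, compound applied directly to the paddy water, and that depth held throughout. Plants were kept in a greenhouse for 13 to 15 days, then visually rated against untreated controls.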
# [1] = tested on: barnyardgrass (Echinochloa crus-galli); experiment: as above; conditions: Flood, 250 g ai/ha; scale 0 to 100 (0 no effect, 100 complete control); 13 to 15 days
# Outline: as §1
# [2] = tested on: sedge, umbrella (small-flower umbrella sedge, Cyperus difformis); experiment: as above; conditions: Flood, 250 g ai/ha; scale 0 to 100 (0 no effect, 100 complete control); 13 to 15 days
# Outline: as §1
# [3] = tested on: ducksalad (Heteranthera limosa); experiment: as above; conditions: Flood, 250 g ai/ha; scale 0 to 100 (0 no effect, 100 complete control); 13 to 15 days
# Outline: as §1
# [4] = tested on: pigweed (Amaranthus retroflexus); experiment: Test A pre-/postemergence greenhouse herbicide test, visual injury rating 0-100
# Outline: (§2)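 Directed soil spray (pre) and foliar spray (post, 1–2 leaf) of solvent/surfactant-formulated compound; greenhouse ~10 d; visual injury 0–100 vs untreated controls.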
# [5] = tested on: wheat (Triticum aestivum); experiment: as above
# Outline: as §2
# [6] = tested on: velvetleaf (Abutilon theophrasti); experiment: as above
# Outline: as §2
# [7] = tested on: giant foxtail (Setaria faberii); experiment: as above
# Outline: as §2
# [8] = tested on: morningglory (Ipomoea spp.); experiment: as above
# Outline: as §2
# [9] = tested on: barnyardgrass (Echinochloa crus-galli); experiment: as above
# Outline: as §2
# corn (Zea mays) = experiment: as above
# Outline: as §2
# [10] = tested on: large (Lg) crabgrass (Digitaria sanguinalis); experiment: as above
# Outline: as §2
compound,measurement,setting,value
CC(=O)Cn1cc(C(=O)c2ccccc2)c(-c2cc(Cl)cc(Cl)c2)n1 [Compound 45],"Plant response rating, Rice",rice (Oryza sativa),0
same,"Plant response rating, Barnyardgrass",[1],0
same,"Plant response rating, Sedge, Umbrella",[2],0
same,"Plant response rating, Ducksalad",[3],0
same,"Plant response rating (0 to 100 scale), Pigweed","[4]; Postemergence, 125 g ai/ha",40
same,"Plant response rating (0 to 100 scale), Pigweed","[4]; Postemergence, 500 g ai/ha",60
same,"Pigweed plant response rating (0 = no effect, 100 = complete control)","[4]; Preemergence, 125 g ai/ha",0
same,"Plant response rating (0 to 100 scale), Pigweed","[4]; Preemergence, 500 g ai/ha",70
same,"Plant response rating (0 to 100 scale), Wheat","[5]; Postemergence, 125 g ai/ha",0
same,"Plant response rating (0 to 100 scale), Wheat","[5]; Postemergence, 500 g ai/ha",0
same,"Wheat plant response rating (0 = no effect, 100 = complete control)","[5]; Preemergence, 125 g ai/ha",0
same,"Plant response rating (0 to 100 scale), Wheat","[5]; Preemergence, 500 g ai/ha",0
same,"Plant response rating (0 to 100 scale), Velvetleaf","[6]; Postemergence, 125 g ai/ha",60
same,"Plant response rating (0 to 100 scale), Velvetleaf","[6]; Postemergence, 500 g ai/ha",80
same,"Velvetleaf plant response rating (0 = no effect, 100 = complete control)","[6]; Preemergence, 125 g ai/ha",20
same,"Plant response rating (0 to 100 scale), Velvetleaf","[6]; Preemergence, 500 g ai/ha",30
same,"Plant response rating (0 to 100 scale), Foxtail, Giant","[7]; Postemergence, 125 g ai/ha",0
same,"Plant response rating (0 to 100 scale), Foxtail, Giant","[7]; Postemergence, 500 g ai/ha",0
same,"Foxtail, Giant plant response rating (0 = no effect, 100 = complete control)","[7]; Preemergence, 125 g ai/ha",0
same,"Plant response rating (0 to 100 scale), Foxtail, Giant","[7]; Preemergence, 500 g ai/ha",0
same,"Morningglory plant response rating (0 = no effect, 100 = complete control)","[8]; Preemergence, 125 g ai/ha",0
same,"Plant response rating (0 to 100 scale), Morningglory","[8]; Preemergence, 500 g ai/ha",0
same,"Plant response rating (0 to 100 scale), Barnyardgrass","[9]; Postemergence, 125 g ai/ha",0
same,"Plant response rating (0 to 100 scale), Barnyardgrass","[9]; Postemergence, 500 g ai/ha",0
same,"Barnyardgrass plant response rating (0 = no effect, 100 = complete control)","[9]; Preemergence, 125 g ai/ha",0
same,"Plant response rating (0 to 100 scale), Barnyardgrass","[9]; Preemergence, 500 g ai/ha",0
same,"Plant response rating (0 to 100 scale), Corn","corn (Zea mays); Postemergence, 125 g ai/ha",0
same,"Plant response rating (0 to 100 scale), Corn","corn (Zea mays); Postemergence, 500 g ai/ha",0
same,"Corn plant response rating (0 = no effect, 100 = complete control)","corn (Zea mays); Preemergence, 125 g ai/ha",0
same,"Plant response rating (0 to 100 scale), Corn","corn (Zea mays); Preemergence, 500 g ai/ha",0
same,"Plant response rating (0 to 100 scale), Crabgrass, Large","[10]; Postemergence, 125 g ai/ha",0
same,"Plant response rating (0 to 100 scale), Crabgrass, Large","[10]; Postemergence, 500 g ai/ha",0
same,"Crabgrass, Large plant response rating (0 = no effect, 100 = complete control)","[10]; Preemergence, 125 g ai/ha",0
same,"Plant response rating (0 to 100 scale), Crabgrass, Large","[10]; Preemergence, 500 g ai/ha",0
CCn1cc(C(=O)c2ccccc2)c(-c2cc(F)cc(C(F)(F)F)c2)n1 [Compound 48],"Plant response rating, Rice",rice (Oryza sativa),0
same,"Plant response rating, Barnyardgrass",[1],0
same,"Plant response rating, Sedge, Umbrella",[2],0
same,"Plant response rating, Ducksalad",[3],0
same,"Plant response rating (0 to 100 scale), Pigweed","[4]; Postemergence, 1000 g ai/ha",90
same,"Plant response rating (0 to 100 scale), Pigweed","[4]; Preemergence, 1000 g ai/ha",100
same,"Plant response rating (0 to 100 scale), Wheat","[5]; Postemergence, 1000 g ai/ha",0
same,"Plant response rating (0 to 100 scale), Wheat","[5]; Preemergence, 1000 g ai/ha",0
same,"Plant response rating (0 to 100 scale), Velvetleaf","[6]; Postemergence, 1000 g ai/ha",90
same,"Plant response rating (0 to 100 scale), Velvetleaf","[6]; Preemergence, 1000 g ai/ha",80
same,"Plant response rating (0 to 100 scale), Foxtail, Giant","[7]; Postemergence, 1000 g ai/ha",20
same,"Plant response rating (0 to 100 scale), Foxtail, Giant","[7]; Preemergence, 1000 g ai/ha",0
same,"Plant response rating (0 to 100 scale), Morningglory","[8]; Postemergence, 1000 g ai/ha",20
same,"Plant response rating (0 to 100 scale), Morningglory","[8]; Preemergence, 1000 g ai/ha",0
same,"Plant response rating (0 to 100 scale), Barnyardgrass","[9]; Postemergence, 1000 g ai/ha",20
same,"Plant response rating (0 to 100 scale), Barnyardgrass","[9]; Preemergence, 1000 g ai/ha",0
same,"Plant response rating (0 to 100 scale), Corn","corn (Zea mays); Postemergence, 1000 g ai/ha",0
same,"Plant response rating (0 to 100 scale), Corn","corn (Zea mays); Preemergence, 1000 g ai/ha",0
same,"Plant response rating (0 to 100 scale), Crabgrass, Large","[10]; Postemergence, 1000 g ai/ha",20
same,"Plant response rating (0 to 100 scale), Crabgrass, Large","[10]; Preemergence, 1000 g ai/ha",0
Clc1cc(Cl)cc(-c2n[nH]cc2C(=NN2CCOCC2)c2ccccc2)c1 [Compound 55],"Plant response rating, Rice",rice (Oryza sativa),0
same,"Plant response rating, Barnyardgrass",[1],0
same,"Plant response rating, Sedge, Umbrella",[2],0
same,"Plant response rating, Ducksalad",[3],0
same,"Plant response rating (0 to 100 scale), Pigweed","[4]; Postemergence, 1000 g ai/ha",100
same,"Plant response rating (0 to 100 scale), Pigweed","[4]; Preemergence, 1000 g ai/ha",90
same,"Plant response rating (0 to 100 scale), Wheat","[5]; Postemergence, 1000 g ai/ha",0
same,"Plant response rating (0 to 100 scale), Wheat","[5]; Preemergence, 1000 g ai/ha",0
same,"Plant response rating (0 to 100 scale), Velvetleaf","[6]; Postemergence, 1000 g ai/ha",100
same,"Plant response rating (0 to 100 scale), Velvetleaf","[6]; Preemergence, 1000 g ai/ha",80
same,"Plant response rating (0 to 100 scale), Foxtail, Giant","[7]; Postemergence, 1000 g ai/ha",0
same,"Plant response rating (0 to 100 scale), Foxtail, Giant","[7]; Preemergence, 1000 g ai/ha",0
same,"Plant response rating (0 to 100 scale), Morningglory","[8]; Postemergence, 1000 g ai/ha",0
same,"Plant response rating (0 to 100 scale), Morningglory","[8]; Preemergence, 1000 g ai/ha",0
same,"Plant response rating (0 to 100 scale), Barnyardgrass","[9]; Postemergence, 1000 g ai/ha",0
same,"Plant response rating (0 to 100 scale), Barnyardgrass","[9]; Preemergence, 1000 g ai/ha",0
same,"Plant response rating (0 to 100 scale), Corn","corn (Zea mays); Postemergence, 1000 g ai/ha",0
same,"Plant response rating (0 to 100 scale), Corn","corn (Zea mays); Preemergence, 1000 g ai/ha",0
same,"Plant response rating (0 to 100 scale), Crabgrass, Large","[10]; Postemergence, 1000 g ai/ha",0
same,"Plant response rating (0 to 100 scale), Crabgrass, Large","[10]; Preemergence, 1000 g ai/ha",0
Clc1cccc(NN=C(c2ccccc2)c2c[nH]nc2-c2cc(Cl)cc(Cl)c2)c1 [Compound 56],"Plant response rating, Rice",rice (Oryza sativa),0
same,"Plant response rating, Barnyardgrass",[1],0
same,"Plant response rating, Sedge, Umbrella",[2],0
same,"Plant response rating, Ducksalad",[3],0
same,"Plant response rating (0 to 100 scale), Pigweed","[4]; Postemergence, 1000 g ai/ha",90
same,"Plant response rating (0 to 100 scale), Pigweed","[4]; Preemergence, 1000 g ai/ha",100
same,"Plant response rating (0 to 100 scale), Wheat","[5]; Postemergence, 1000 g ai/ha",0
same,"Plant response rating (0 to 100 scale), Wheat","[5]; Preemergence, 1000 g ai/ha",0
same,"Plant response rating (0 to 100 scale), Velvetleaf","[6]; Postemergence, 1000 g ai/ha",90
same,"Plant response rating (0 to 100 scale), Velvetleaf","[6]; Preemergence, 1000 g ai/ha",90
same,"Plant response rating (0 to 100 scale), Foxtail, Giant","[7]; Postemergence, 1000 g ai/ha",0
same,"Plant response rating (0 to 100 scale), Foxtail, Giant","[7]; Preemergence, 1000 g ai/ha",0
same,"Plant response rating (0 to 100 scale), Morningglory","[8]; Postemergence, 1000 g ai/ha",0
same,"Plant response rating (0 to 100 scale), Morningglory","[8]; Preemergence, 1000 g ai/ha",0
same,"Plant response rating (0 to 100 scale), Barnyardgrass","[9]; Postemergence, 1000 g ai/ha",0
same,"Plant response rating (0 to 100 scale), Barnyardgrass","[9]; Preemergence, 1000 g ai/ha",0
same,"Plant response rating (0 to 100 scale), Corn","corn (Zea mays); Postemergence, 1000 g ai/ha",0
same,"Plant response rating (0 to 100 scale), Corn","corn (Zea mays); Preemergence, 1000 g ai/ha",0
same,"Plant response rating (0 to 100 scale), Crabgrass, Large","[10]; Postemergence, 1000 g ai/ha",0
same,"Plant response rating (0 to 100 scale), Crabgrass, Large","[10]; Preemergence, 1000 g ai/ha",0
